The subject of test [1] is oxazolone-induced colitis. The test is described as follows: Mouse model of oxazolone-induced colitis. The class given is in vivo, BALB/C mice. The note with it: PO, 1, 3, and/or 10 mg/kg BID (doses up to 10 mg/kg BID). How it is done: Assay 7: Mouse Model of Oxazalone-Induced Colitis
Oxazolone-induced colitis is an experimental model that has a histological resemblance to human ulcerative colitis (Heller et al. Immunology, 2002, 17, 629-638). Adult BALB/C mice from Harlan were used in the assay. On day 1, animals were lightly anesthetized with isoflurane and the hairs between the shoulder were carefully removed before oxazolone (4%, 150 μL, 4:1 acetone:olive oil formulation) or vehicle solution was slowly applied for skin sensitization. Seven days after skin sensitization, the mice were fasted overnight, anesthetized with isoflurane inhalation, and a 1 mL syringe equipped with a 3.5-F catheter, filled with oxazolone solution, was inserted carefully about 4 cm into the colon of the mouse. Following insertion, 50 μL of the oxazolone solution (1%, 1:1 ethanol:water formulation) was injected very slowly (over 30 sec using an injection pump) into the colon. The catheter was removed and the mice were held vertically (head down) for 2 min to ensure that the entire oxazolone solution remained inside the colon. Drug treatment (PO, BID or TID) or vehicle was initiated a day prior to the oxazolone intrarectal (IR) challenge. Two-day post oxazolone intrarectal challenge, the Disease Activity Index (DAI) was assessed by treatment-blinded experimenters for each mouse according to the criteria score: stool consistency score (0, normal; 2, loose; 4, diarrhea), gross bleeding score (0, absence; 2, blood tinged; 4, presence), and weight loss score (0, none; 1, 1%-5%; 2, 5%-10^%; 3, 10%-20%; 4, more than 20%); DAI=average of (stool consistency score+gross bleeding score+weight loss score).
Selected compounds of the invention were tested in the assay. Efficacy in the model is evidenced by a decrease in DAI score as compared with the score from vehicle treated animals.

The test system of test [2] is IL-4 induced STAT6 phosphorylation in THP-1 human monocytic cells.
Where [3] appears, read: THP-1 cells, IL-4 induced STAT6 phosphorylation.

Like-named read-outs stand apart in the source and are kept apart here.

These results are taken from patent US11780852B2, “Methods for treating Crohn's disease using 3-((1R,3s,5S)-3-((7-((5-methyl-1H-pyrazol-3-yl)amino)-1,6-naphthyridin-5-yl)amino)-8-azabicyclo[3.2.1]octan-8-yl)propanenitrile” (priority 2015, dated 2023).

For `CCC(C)C(=O)N1C2CCC1CC(Nc1nc(Nc3cc(C)[nH]n3)cc3ncccc13)C2` (centres unmarked) [Example 2-6], the “DAI score as compared with vehicle treated animals” value in test [1] is listed as “did not exhibit a statistically significant decrease”. On to `Cc1cc(Nc2cc3ncccc3c(N[C@@H]3C[C@H]4CCC[C@@H](C3)N4S(=O)(=O)CC3CC3)n2)n[nH]1` [Example 4-23], for which the “DAI score as compared with vehicle treated animals” value in test [1] is “did not exhibit a statistically significant decrease”. Consider `Cc1cc(Nc2cc3ncccc3c(N[C@@H]3C[C@H]4CCC[C@@H](C3)N4CC(=O)N(C)C)n2)n[nH]1` [Example 1-38], for which the “DAI score as compared with vehicle treated animals” value in test [1] is given as “statistically significant decrease”.

`Cc1cc(Nc2cc3ncccc3c(N[C@@H]3C[C@H]4CCC[C@@H](C3)N4S(=O)(=O)C3CC3)n2)n[nH]1` [Example 4-18]: in test [1], the “DAI score as compared with vehicle treated animals” value is listed as “did not exhibit a statistically significant decrease”. For the molecule `Cc1cc(Nc2cc3ncccc3c(N[C@@H]3C[C@H]4CC[C@@H](C3)N4C(=O)c3ccccc3)n2)n[nH]1` [Example 2-12], the “THP-1 IL4 pIC50” value in test [2] was “B (key: A represents a pEC50 value ≥7.5 (EC50≤32 nM); B represents a pEC50 value between 6.7 and 7.5 (EC50 between 200 nM and 32 nM); C represents a pEC50 value <6.7 (EC50>200 nM))”. Regarding `CCS(=O)(=O)N1[C@@H]2CC[C@H]1C[C@H](Nc1nc(Nc3cc(C)[nH]n3)cc3ncccc13)C2` [Example 7, N^5-((1R,3s,5S)-8-(ethylsulfonyl)-8-azabicyclo[3.2.1]octan-3-yl)-N^7-(5-methyl-1H-pyrazol-3-yl)-1,6-naphthyridine-5,7-diamine], in test [1], the “DAI score as compared with vehicle treated animals” value is given as “did not exhibit a statistically significant decrease”. With `Cc1cc(Nc2cc3ncccc3c(N[C@@H]3C[C@H]4CCC[C@@H](C3)N4C(=O)C(C)(C)CO)n2)n[nH]1` [Example 2-22], the “DAI score as compared with vehicle treated animals” value in test [1] is given as “did not exhibit a statistically significant decrease”. Still for that read-out and setting: in the case of `Cc1cc(Nc2cc3ncccc3c(N[C@@H]3C[C@H]4CCC[C@@H](C3)N4S(=O)(=O)c3ccccc3)n2)n[nH]1` [Example 9, N-(5-methyl-1H-pyrazol-3-yl)-N-((1R,3s,5S)-9-(phenylsulfonyl)-9-azabicyclo[3.3.1]nonan-3-yl)-1,6-naphthyridine-5,7-diamine] it was “did not exhibit a statistically significant decrease”. The same measure, in the same setting: in the case of `CCOCC(=O)N1[C@@H]2CCC[C@H]1C[C@H](Nc1nc(Nc3cc(C)[nH]n3)cc3ncccc13)C2` [Example 2-17] it was “did not exhibit a statistically significant decrease”; in that of `Cc1cc(Nc2cc3ncccc3c(N[C@@H]3C[C@H]4CC[C@@H](C3)N4S(=O)(=O)Cc3ccccc3)n2)n[nH]1` [Example 4-13], “did not exhibit a statistically significant decrease”; in that of `Cc1cc(Nc2cc3ncccc3c(N[C@@H]3C[C@H]4CC[C@@H](C3)N4S(=O)(=O)N3CC(C#N)C3)n2)n[nH]1` [Example 13, 1-(((1R,3s,5S)-3-((7-((5-methyl-1H-pyrazol-3-yl)amino)-1,6-naphthyridin-5-yl)amino)-8-azabicyclo[3.2.1]octan-8-yl)sulfonyl)azetidine-3-carbonitrile], “did not exhibit a statistically significant decrease”.

With `Cc1cc(Nc2cc3ncccc3c(N[C@@H]3C[C@H]4CC[C@@H](C3)N4C3CCCOC3=O)n2)n[nH]1` (some centres unmarked) [Example 1-28], the “THP-1 IL4 pIC50” value in test [2] is “C (key: A represents a pEC50 value ≥7.5 (EC50≤32 nM); B represents a pEC50 value between 6.7 and 7.5 (EC50 between 200 nM and 32 nM); C represents a pEC50 value <6.7 (EC50>200 nM))”. In the case of `COCCS(=O)(=O)N1[C@@H]2CCC[C@H]1C[C@H](Nc1nc(Nc3cc(C)[nH]n3)cc3ncccc13)C2` [Example 4-19], the “DAI score as compared with vehicle treated animals” value in test [1] is recorded as “did not exhibit a statistically significant decrease”. On to `Cc1cc(Nc2cc3ncccc3c(N[C@@H]3C[C@H]4CC[C@@H](C3)N4Cc3ccc(O)cc3)n2)n[nH]1` [Example 1-18], for which the “THP-1 IL4 pIC50” value in test [2] is “C (key: A represents a pEC50 value ≥7.5 (EC50≤32 nM); B represents a pEC50 value between 6.7 and 7.5 (EC50 between 200 nM and 32 nM); C represents a pEC50 value <6.7 (EC50>200 nM))”. As for `Cc1cc(Nc2cc3ncccc3c(N[C@@H]3C[C@H]4CC[C@@H](C3)N4S(=O)(=O)CC(C)C)n2)n[nH]1` [Example 4-3], in test [1], the “DAI score as compared with vehicle treated animals” value is recorded as “did not exhibit a statistically significant decrease”. `Cc1cc(Nc2cc3ncccc3c(N[C@@H]3C[C@H]4CCC[C@@H](C3)N4C(=O)CN(C)C)n2)n[nH]1` [Example 4, 2-(Dimethylamino)-1-((1R,3s,5S)-3-((7-((5-methyl-1H-pyrazol-3-yl)amino)-1,6-naphthyridin-5-yl)amino)-9-azabicyclo[3.3.1]nonan-9-yl)ethan-1-one]: the “DAI score as compared with vehicle treated animals” value in test [1] was “statistically significant decrease”.

As to `COC(=O)C1(C(=O)N2[C@@H]3CC[C@H]2C[C@H](Nc2nc(Nc4cc(C)[nH]n4)cc4ncccc24)C3)CC1` [Example 2-9], the “THP-1 IL4 pIC50” value in test [2] (setting [3]) is “C (C represents a pEC50 value <6.7 (EC50>200 nM))”.

`Cc1cc(Nc2cc3ncccc3c(NC3CC4CCCC(C3)N4C(=O)C(C)O)n2)n[nH]1` (centres unmarked) [Example 2-16]: in test [1], the “DAI score as compared with vehicle treated animals” value is recorded as “did not exhibit a statistically significant decrease”. Consider `COCCS(=O)(=O)N1[C@@H]2CC[C@H]1C[C@H](Nc1nc(Nc3cc(C)[nH]n3)cc3ncccc13)C2` [Example 6, N^5-((1R,3s,5S)-8-((2-methoxyethyl)sulfonyl)-8-azabicyclo[3.2.1]octan-3-yl)-N^7-(5-methyl-1H-pyrazol-3-yl)-1,6-naphthyridine-5,7-diamine], for which the “DAI score as compared with vehicle treated animals” value in test [1] is “statistically significant decrease”.

Regarding `Cc1cc(Nc2cc3ncccc3c(N[C@@H]3C[C@H]4CCC[C@@H](C3)N4C(=O)Cc3ccccc3)n2)n[nH]1` [Example 2-24], the “DAI score as compared with vehicle treated animals” value in test [1] is on record as “did not exhibit a statistically significant decrease”. On to `Cc1cc(Nc2cc3ncccc3c(N[C@@H]3C[C@H]4CC[C@@H](C3)N4CCF)n2)n[nH]1` [Example 2, N^5-((1R,3s,5S)-8-(2-fluoroethyl)-8-azabicyclo[3.2.1]octan-3-yl)-N^7-(5-methyl-1H-pyrazol-3-yl)-1,6-naphthyridine-5,7-diamine], for which the “DAI score as compared with vehicle treated animals” value in test [1] is recorded as “statistically significant decrease”. Regarding `Cc1cc(Nc2cc3ncccc3c(N[C@H]3C[C@H]4CCC[C@@H](C3)N4C3CCOC3=O)n2)n[nH]1` (some centres unmarked) [Example 1-52], the “THP-1 IL4 pIC50” value in test [2] (setting [3]) is “B (B represents a pEC50 value between 6.7 and 7.5 (EC50 between 200 nM and 32 nM))”.

As for `Cc1cc(Nc2cc3ncccc3c(N[C@@H]3C[C@H]4CC[C@@H](C3)N4C(=O)C(F)F)n2)n[nH]1` [Example 5, 2,2-difluoro-1-((1R,3s,5S)-3-((7-((5-methyl-1H-pyrazol-3-yl)amino)-1,6-naphthyridin-5-yl)amino)-8-azabicyclo[3.2.1]octan-8-yl)ethan-1-one], the “DAI score as compared with vehicle treated animals” value in test [1] is recorded as “statistically significant decrease”. On to `Cc1cc(Nc2cc3ncccc3c(N[C@@H]3C[C@H]4CC[C@@H](C3)N4C(=O)c3ccncc3)n2)n[nH]1` [Example 2-13], for which the “THP-1 IL4 pIC50” value in test [2] is “B (key: A represents a pEC50 value ≥7.5 (EC50≤32 nM); B represents a pEC50 value between 6.7 and 7.5 (EC50 between 200 nM and 32 nM); C represents a pEC50 value <6.7 (EC50>200 nM))”. As for `Cc1cc(Nc2cc3nc(CO)ccc3c(N[C@@H]3C[C@H]4CC[C@@H](C3)N4CCC#N)n2)n[nH]1` [Example 5-11], the “DAI score as compared with vehicle treated animals” value in test [1] was “did not exhibit a statistically significant decrease”. Turning to `Cc1cc(Nc2cc3ncccc3c(N[C@@H]3C[C@H]4CC[C@@H](C3)N4S(=O)(=O)C3CC3)n2)n[nH]1` [Example 4-4], in test [1], the “DAI score as compared with vehicle treated animals” value is on record as “did not exhibit a statistically significant decrease”. Consider `Cc1cc(Nc2cc3ncccc3c(N[C@@H]3C[C@H]4CC[C@@H](C3)N4S(=O)(=O)c3cccnc3)n2)n[nH]1` [Example 3, N^7-(5-methyl-H-pyrazol-3-yl)-N-((1R,3s,5S)-8-(pyridin-3-ylsulfonyl)-8-azabicyclo[3.2.1]octan-3-yl)-1,6-naphthyridine-5,7-diamine], for which, in test [1], the “DAI score as compared with vehicle treated animals” value is reported as “statistically significant decrease”. On to `Cc1cc(Nc2cc3ncccc3c(N[C@@H]3C[C@H]4CC[C@@H](C3)N4CC3COC(=O)O3)n2)n[nH]1` (some centres unmarked) [Example 1-30], for which the “THP-1 IL4 pIC50” value in test [2] was “B (key: A represents a pEC50 value ≥7.5 (EC50≤32 nM); B represents a pEC50 value between 6.7 and 7.5 (EC50 between 200 nM and 32 nM); C represents a pEC50 value <6.7 (EC50>200 nM))”. As for `Cc1cc(Nc2cc3ncccc3c(N[C@@H]3C[C@H]4CCC[C@@H](C3)N4S(=O)(=O)N3CC(C#N)C3)n2)n[nH]1` [Example 11, 1-(((1R,3s,5S)-3-((7-((5-methyl-1H-pyrazol-3-yl)amino)-1,6-naphthyridin-5-yl)amino)-9-azabicyclo[3.3.1]nonan-9-yl)sulfonyl)azetidine-3-carbonitrile], the “DAI score as compared with vehicle treated animals” value in test [1] is “did not exhibit a statistically significant decrease”.
